Measurements taken from patent US8426408B2, “Pyrimidine inhibitors of kinases” (AbbVie Inc., priority 2009, dated 2013).
pKi: −log10 of the molar value.

Legend:
[1] = target: KDR (Homo sapiens, UniProt P35968); assay: KDR HTRF in vitro kinase assay; type: biochemical; set-up: purified enzyme (His6-KDR 789-1354, MW 63 kD); His6 (N); conditions: 1 mM ATP; read-out: KDR enzyme inhibition data (Ki)
How it was run: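 His6-KDR 789-1354 (7 ng/well) with 0.5 μM biotinylated peptide substrate and 1 mM ATP in HEPES pH 7.1, MgCl2/MnCl2, 60 min at room temperature. EDTA-quenched, detected by streptavidin-XL-665 plus Eu-kryptate anti-phosphotyrosine HTRF after 3 h; IC50 from 620/665 nm ratio.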

[2] = target: T1, Aurora A (Homo sapiens, UniProt O14965); assay: Aurora A enzyme inhibition (time-resolved fluorescence, STK substrate-2); type: biochemical; conditions: 1 mM ATP
T1 sequence (O14965 1-403): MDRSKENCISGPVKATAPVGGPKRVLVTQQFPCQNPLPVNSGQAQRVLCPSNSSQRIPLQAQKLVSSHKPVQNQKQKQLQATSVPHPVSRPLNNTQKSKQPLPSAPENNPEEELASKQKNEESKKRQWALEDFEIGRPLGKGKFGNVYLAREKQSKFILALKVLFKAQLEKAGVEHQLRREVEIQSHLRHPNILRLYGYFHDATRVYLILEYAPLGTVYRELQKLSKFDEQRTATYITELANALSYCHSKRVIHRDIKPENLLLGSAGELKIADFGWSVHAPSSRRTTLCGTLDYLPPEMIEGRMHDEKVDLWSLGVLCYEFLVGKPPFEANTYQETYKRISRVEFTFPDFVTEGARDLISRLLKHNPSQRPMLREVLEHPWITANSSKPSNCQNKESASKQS
How it was run: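 Phosphorylation of biotinylated STK substrate-2 at 1 mM ATP, 1 h, Hepes buffer pH 7.4 (MgCl2, sodium orthovanadate, Triton X-100). After EDTA quench, 665/615 nm time-resolved fluorescence ratio read via europium anti-phospho antibody and SA-XL665; IC50 from exponential fit versus inhibitor concentration.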

[3] = target: T2, Aurora B (Homo sapiens, UniProt Q96GD4); assay: Aurora B enzyme inhibition (time-resolved fluorescence, histone H3 peptide); type: biochemical; conditions: 1 mM ATP
T2 construct: Active Aurora B enzyme (recombinant residues 1-344)
T2 sequence (Q96GD4 whole entry, the tested form may be a part): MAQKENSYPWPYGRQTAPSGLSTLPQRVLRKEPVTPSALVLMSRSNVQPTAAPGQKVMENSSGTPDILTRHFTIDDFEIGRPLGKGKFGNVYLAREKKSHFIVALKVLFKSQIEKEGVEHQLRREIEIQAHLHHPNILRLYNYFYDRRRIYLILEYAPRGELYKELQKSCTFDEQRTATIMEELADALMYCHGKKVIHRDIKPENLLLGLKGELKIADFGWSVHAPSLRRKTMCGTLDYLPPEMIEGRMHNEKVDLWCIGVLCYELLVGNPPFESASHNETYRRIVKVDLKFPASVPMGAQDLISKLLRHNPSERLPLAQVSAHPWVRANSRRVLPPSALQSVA
T2 sequence (Q9NQS7 826-918 partner limits assumed): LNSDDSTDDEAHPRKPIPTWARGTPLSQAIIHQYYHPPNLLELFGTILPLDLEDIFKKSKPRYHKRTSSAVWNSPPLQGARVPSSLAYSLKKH
How it was run: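 IC50s came from an exponential fit of inhibition against inhibitor concentration, with phosphorylation read as the 665/615 nm time-resolved fluorescence ratio after EDTA stop using Eu-anti-phospho-H3 and SA-APC. The 1 h reaction used Aurora B 1-344 plus GST-INCENP, biotin-histone H3 1-21 peptide and 1 mM ATP in pH 7.4 HEPES buffer.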

[4] = system: NCI-H1299 cells; assay: Induction of polyploidy in H1299; type: cell-based, Human; conditions: NCI-H1299, 48 hours
How it was run: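 Potency is given as EC15, the inhibitor concentration giving 15% polyploid cells, from log dose-response least-squares analysis. Polyploid cells (nuclear area >750 μ^2, ≥4N) were counted by Hoechst high-content microscopy. H1299 cells had been exposed for 48 h at 37 C in duplicate, then fixed in 3% formalin.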

KDR, sequence (P35968 789-1354): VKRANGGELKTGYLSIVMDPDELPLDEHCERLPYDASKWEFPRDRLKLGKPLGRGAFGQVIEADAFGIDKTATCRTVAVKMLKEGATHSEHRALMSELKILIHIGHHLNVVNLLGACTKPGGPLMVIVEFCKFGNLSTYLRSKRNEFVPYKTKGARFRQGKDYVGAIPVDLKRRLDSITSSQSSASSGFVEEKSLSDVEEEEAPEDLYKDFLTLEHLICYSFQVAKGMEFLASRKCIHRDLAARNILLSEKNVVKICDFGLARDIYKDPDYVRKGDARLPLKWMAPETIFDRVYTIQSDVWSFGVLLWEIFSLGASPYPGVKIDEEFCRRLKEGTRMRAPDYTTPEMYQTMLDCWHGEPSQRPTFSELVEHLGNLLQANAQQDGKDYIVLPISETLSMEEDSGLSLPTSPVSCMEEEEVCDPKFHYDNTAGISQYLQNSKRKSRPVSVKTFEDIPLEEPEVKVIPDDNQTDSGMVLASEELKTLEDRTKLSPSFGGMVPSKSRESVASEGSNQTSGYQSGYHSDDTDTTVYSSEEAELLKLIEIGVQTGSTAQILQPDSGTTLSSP

| Compound | pKi [1] | pKi [2] | pKi [3] | EC15 ([4]; Homo sapiens, read-out: EC15 (concentration of inhibitor necessary to induce polyploidy in 15% of cells)) [nM] | EC15 (concentration of inhibitor necessary to induce polyploidy in 15% of cells) [4] |
| --- | --- | --- | --- | --- | --- |
| COc1ccc(Cn2cc(Nc3ncc(Cl)c(N[C@H]4[C@@H](C(N)=O)[C@@H]5C=C[C@H]4C5)n3)cn2)cc1F [Example 192, (1S,2S,3R,4R)-3-[(5-chloro-2-{[1-(3-fluoro-4-methoxybenzyl)-1H-pyrazol-4-yl]amino}pyrimidin-4-yl)amino]bicyclo[2.2.1]hept-5-ene-2-carboxamide] | > 7.00 | > 7.00 | > 7.00 | < 100 | – |
| (1S,2R)-2-{[5-chloro-2-({1-[2-(morpholin-4-yl)ethyl]-1H-pyrazol-4-yl}amino)pyrimidin-4-yl]amino}cyclopentanecarboxamide and (1R,2S)-2-{[5-chloro-2-({1-[2-(morpholin-4-yl)ethyl]-1H-pyrazol-4-yl}amino)pyrimidin-4-yl]amino}cyclopentanecarboxamide [Example 137] | > 7.00 | > 7.00 | > 7.00 | – | B (“B” represents an EC15 of between 0.1 μM and 1 μM) |
